Calls of active or inactive are those of the source. The rule behind the calls is not given here.
Columns and labels:
MCF7 [1] = experiment: Cytotoxicity against human MCF7 cells assessed as cell survival at 10 uM after 48 hrs by MTT assay relative to control; assay type: functional; settings: MCF7, 48 h, read-out: Survival
Jurkat [2] = experiment: Cytotoxicity against human Jurkat cells assessed as cell survival at 10 uM after 48 hrs by MTT assay relative to control; assay type: functional; settings: read-out: Survival
HCT-116 [3] = experiment: Cytotoxicity against human HCT116 cells assessed as cell survival at 10 uM after 48 hrs by MTT assay relative to control; assay type: functional; settings: HCT-116, 48 h, read-out: Survival
MDA-MB-231 [4] = experiment: Cytotoxicity against human MDA-MB-231 cells assessed as cell survival at 10 uM after 48 hrs by MTT assay relative to control; assay type: functional; settings: MDA-MB-231, 48 h, read-out: Survival
BT-474 [5] = experiment: Cytotoxicity against human BT474 cells assessed as cell survival at 10 uM after 48 hrs by MTT assay relative to control; assay type: functional; settings: BT-474, 48 h, read-out: Survival
HCT-8 = experiment: Cytotoxicity against human HCT8 cells assessed as reduction in cell viability; assay type: functional, cell-based
P388 = experiment: Cytotoxicity against mouse P388 cells assessed as reduction in cell viability; assay type: functional, cell-based
MDA-MB-231 [6] = experiment: Cytotoxicity against human MDA-MB-231 cells assessed as reduction in cell viability; assay type: functional, cell-based
A549 = experiment: Cytotoxicity against human A549 cells assessed as reduction in cell viability; assay type: functional, cell-based
[7] = molecular target: Cyclin-dependent kinase 4 (Homo sapiens, UniProt P11802); experiment: Inhibition of CDK4 (unknown origin)
[8] = molecular target: Receptor tyrosine-protein kinase erbB-2 (Homo sapiens, UniProt P04626); experiment: Inhibition of c-erbbeta2 (unknown origin)
BT-474 [9] = experiment: Cytotoxicity against human BT474 cells assessed as reduction in cell survival after 48 hrs by MTT assay; assay type: functional, cell-based; settings: BT-474, 48 h
MDA-MB-231 [10] = experiment: Cytotoxicity against human MDA-MB-231 cells assessed as reduction in cell survival after 48 hrs by MTT assay; assay type: functional, cell-based; settings: MDA-MB-231, 48 h
HCT-116 [11] = experiment: Toxicity in human HCT116 cells at 20 uM after 40 hrs by LDH assay; assay type: cell-based; settings: hct-116, 40 h
HCT-116 [12] = experiment: Cytotoxicity against human HCT116 cells assessed as reduction in cell survival after 48 hrs by MTT assay; assay type: functional, cell-based; settings: HCT-116, 48 h
MCF7 [13] = experiment: Cytotoxicity against human MCF7 cells assessed as reduction in cell survival after 48 hrs by MTT assay; assay type: functional, cell-based; settings: MCF7, 48 h
MCF7 [14] = experiment: Toxicity in human MCF7 cells at 20 uM after 40 hrs by LDH assay; assay type: cell-based; settings: mcf7, 40 h
Sus scrofa [15] = organism: Sus scrofa; experiment: (§1) Inhibition of porcine brain tubulin polymerization incubated for 5 mins by fluorimetry
Jurkat [16] = experiment: Toxicity in human Jurkat cells at 20 uM after 40 hrs by LDH assay; assay type: cell-based
Jurkat [17] = experiment: Cytotoxicity against human Jurkat cells assessed as reduction in cell survival after 48 hrs by MTT assay; assay type: functional, cell-based
Sus scrofa [18] = organism: Sus scrofa; experiment: Inhibition of porcine brain tubulin polymerization at 3.2 uM incubated for 5 mins by fluorimetry
Jurkat [19] = experiment: Induction of apoptosis in human Jurkat cells increase in caspase 3/7 activity at 1 uM measured up to 180 mins by fluorescence assay relative to control; assay type: functional
MDA-MB-231 [20] = experiment: Toxicity in human MDA-MB-231 cells at 20 uM after 40 hrs by LDH assay; assay type: cell-based; settings: mda-mb-231, 40 h
BT-474 [21] = experiment: Toxicity in human BT474 cells at 20 uM after 40 hrs by LDH assay; assay type: cell-based; settings: bt-474, 40 h
Capra hircus = organism: Capra hircus; experiment: Inhibition of colchicine binding to goat brain tubulin pre-incubated for 20 mins before colchine addition and measured after 45 mins by fluorescence based assay
MCF7 [22] = experiment: Cell cycle arrest in human MCF7 cells assessed as G2/M phase accumulation at 3 uM after […] by propidium iodide staining based flow cytometry; assay type: functional
[23] = as §1; set-up: species or system Sus scrofa
Sus scrofa [24] = organism: Sus scrofa; experiment: Inhibition of porcine brain tubulin polymerization at 0.6 uM incubated for 5 mins by fluorimetry

Chain of Cyclin-dependent kinase 4 (P11802 whole entry): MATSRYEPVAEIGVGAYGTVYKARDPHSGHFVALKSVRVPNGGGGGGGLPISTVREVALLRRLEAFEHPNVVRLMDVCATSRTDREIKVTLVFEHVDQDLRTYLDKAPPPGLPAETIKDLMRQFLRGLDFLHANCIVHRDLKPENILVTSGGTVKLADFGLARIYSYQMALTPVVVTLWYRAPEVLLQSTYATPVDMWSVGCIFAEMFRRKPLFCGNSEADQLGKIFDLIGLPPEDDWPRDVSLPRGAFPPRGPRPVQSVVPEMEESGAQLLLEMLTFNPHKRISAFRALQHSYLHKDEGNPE
Chain of Receptor tyrosine-protein kinase erbB-2 (P04626 whole entry): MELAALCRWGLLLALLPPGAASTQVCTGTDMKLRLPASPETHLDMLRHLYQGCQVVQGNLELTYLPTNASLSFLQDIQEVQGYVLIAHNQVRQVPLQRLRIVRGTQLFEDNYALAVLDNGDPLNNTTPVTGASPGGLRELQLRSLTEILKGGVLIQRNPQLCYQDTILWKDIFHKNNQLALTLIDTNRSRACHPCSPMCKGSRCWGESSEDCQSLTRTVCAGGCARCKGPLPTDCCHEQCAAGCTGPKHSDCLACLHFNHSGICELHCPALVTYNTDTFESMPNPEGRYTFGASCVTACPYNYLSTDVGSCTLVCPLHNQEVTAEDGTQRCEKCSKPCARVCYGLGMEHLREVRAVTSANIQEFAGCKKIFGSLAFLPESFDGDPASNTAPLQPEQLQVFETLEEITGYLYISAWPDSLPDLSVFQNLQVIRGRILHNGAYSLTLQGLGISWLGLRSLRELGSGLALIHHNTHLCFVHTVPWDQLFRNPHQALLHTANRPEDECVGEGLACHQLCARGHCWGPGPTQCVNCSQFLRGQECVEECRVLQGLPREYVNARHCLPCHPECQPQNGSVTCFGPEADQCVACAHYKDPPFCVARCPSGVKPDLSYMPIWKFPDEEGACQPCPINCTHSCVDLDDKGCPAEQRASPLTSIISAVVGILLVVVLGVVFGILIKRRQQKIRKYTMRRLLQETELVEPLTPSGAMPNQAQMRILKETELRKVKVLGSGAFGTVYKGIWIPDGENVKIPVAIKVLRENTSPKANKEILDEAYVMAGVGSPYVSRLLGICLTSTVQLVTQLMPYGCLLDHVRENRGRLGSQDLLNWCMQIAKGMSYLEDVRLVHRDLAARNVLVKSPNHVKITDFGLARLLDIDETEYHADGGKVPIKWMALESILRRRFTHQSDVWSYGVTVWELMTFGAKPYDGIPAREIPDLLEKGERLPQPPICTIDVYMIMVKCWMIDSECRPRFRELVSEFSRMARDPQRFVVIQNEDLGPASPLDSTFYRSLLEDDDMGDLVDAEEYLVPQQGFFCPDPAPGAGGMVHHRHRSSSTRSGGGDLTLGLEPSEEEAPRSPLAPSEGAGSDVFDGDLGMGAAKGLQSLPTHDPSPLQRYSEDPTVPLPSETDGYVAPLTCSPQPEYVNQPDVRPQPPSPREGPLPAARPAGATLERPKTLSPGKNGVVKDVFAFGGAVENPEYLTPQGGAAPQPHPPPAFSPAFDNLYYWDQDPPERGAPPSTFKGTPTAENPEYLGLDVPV

## COc1ccc2c(c1)c(/C=N/NC(=O)C(=O)c1c[nH]c3ccc(Br)cc13)cn2Cc1ccc(Cl)cc1
MCF7 [1]
  viability at 10 µM: 96.1%
Jurkat [2]
  viability at 10 µM: 46.6%
HCT-116 [3]
  viability at 10 µM: 86.1%
MDA-MB-231 [4]
  viability at 10 µM: 103%
BT-474 [5]
  viability at 10 µM: 99.1%

## O=C(N/N=C/c1ccncc1)C(=O)c1cn(Cc2ccc(Cl)cc2)c2ccccc12
MCF7 [1]
  viability at 10 µM: 82.2%
Jurkat [2]
  viability at 10 µM: 66.7%
HCT-116 [3]
  viability at 10 µM: 69.1%
MDA-MB-231 [4]
  viability at 10 µM: 71.2%
BT-474 [5]
  viability at 10 µM: 78.7%

## COc1cccc(/C=N/NC(=O)C(=O)c2c[nH]c3ccccc23)c1
MCF7 [1]
  viability at 10 µM: 96.8%
Jurkat [2]
  viability at 10 µM: 59.7%
HCT-116 [3]
  viability at 10 µM: 72.4%
MDA-MB-231 [4]
  viability at 10 µM: 97.2%
BT-474 [5]
  viability at 10 µM: 95.1%

## CN1CC(c2c[nH]c3cc(Br)ccc23)N(C)CC1c1c[nH]c2cc(Br)ccc12 (stereo unspecified)
HCT-8
  IC50: 1 to 10 µM
P388
  IC50: 15 µM
MDA-MB-231 [6]
  IC50: 1 to 10 µM
A549
  IC50: 1 to 10 µM

## O=C1N=C(C(=O)c2c[nH]c3ccccc23)N/C1=C\c1c[nH]c2cc(O)ccc12
[7]
  IC50: 12.5 µM
[8]
  IC50: 7.4 µM

## COc1ccc2[nH]cc(/C=N/NC(=O)C(=O)c3cn(Cc4ccc(Cl)cc4)c4ccccc34)c2c1
BT-474 [9]
  IC50: 2.7 µM
MCF7 [1]
  viability at 10 µM: 33.7%
MDA-MB-231 [10]
  IC50: 2.9 µM
HCT-116 [11]
  Activity: 20 to 25%
Jurkat [2]
  viability at 10 µM: 36.1%
HCT-116 [3]
  viability at 10 µM: 38.2%
MDA-MB-231 [4]
  viability at 10 µM: 29.4%
HCT-116 [12]
  IC50: 4.2 µM
BT-474 [5]
  viability at 10 µM: 21.2%
MCF7 [13]
  IC50: 3.8 µM
MCF7 [14]
  Activity: 20 to 25%
Sus scrofa [15]
  inhibition: Dose-dependent effect
Jurkat [16]
  Activity: 20 to 25%
Jurkat [17]
  IC50: 3.6 µM
Sus scrofa [18]
  inhibition: 50%
Jurkat [19]
  fold change (FC): 2 - 5
MDA-MB-231 [20]
  Activity: 20 to 25%
BT-474 [21]
  Activity: 20 to 25%

## O=C(N/N=C/c1c[nH]c2cc(Br)ccc12)C(=O)c1c[nH]c2ccccc12
MCF7 [1]
  viability at 10 µM: 92.7%
Jurkat [2]
  viability at 10 µM: 75.4%
HCT-116 [3]
  viability at 10 µM: 94.5%
MDA-MB-231 [4]
  viability at 10 µM: 95.1%
BT-474 [5]
  viability at 10 µM: 86.8%

## O=C(Nc1ccncc1)C(=O)c1cn(Cc2ccc(Cl)cc2)c2ccccc12 [INDIBULIN]
MCF7 [13]
  IC50: 1.1 µM

## COc1ccc(/C=N/NC(=O)C(=O)c2c[nH]c3ccccc23)cc1
MCF7 [1]
  viability at 10 µM: 106%
Jurkat [2]
  viability at 10 µM: 61.9%
HCT-116 [3]
  viability at 10 µM: 101%
MDA-MB-231 [4]
  viability at 10 µM: 102%
BT-474 [5]
  viability at 10 µM: 97.5%

## O=C(N/N=C/c1c[nH]c2cc(F)ccc12)C(=O)c1c[nH]c2ccc(Br)cc12
MCF7 [1]
  viability at 10 µM: 97.5%
Jurkat [2]
  viability at 10 µM: 95.8%
HCT-116 [3]
  viability at 10 µM: 84.2%
MDA-MB-231 [4]
  viability at 10 µM: 111%
BT-474 [5]
  viability at 10 µM: 94.8%

## O=C(N/N=C/c1cn(Cc2ccc(Cl)cc2)c2ccc(Br)cc12)C(=O)c1c[nH]c2ccccc12
MCF7 [1]
  viability at 10 µM: 107%
Jurkat [2]
  viability at 10 µM: 93.2%
HCT-116 [3]
  viability at 10 µM: 72.6%
MDA-MB-231 [4]
  viability at 10 µM: 88.8%
BT-474 [5]
  viability at 10 µM: 94.7%

## O=C(N/N=C/c1c[nH]c2ccccc12)C(=O)c1c[nH]c2ccccc12
MCF7 [1]
  viability at 10 µM: 99.2%
Jurkat [2]
  viability at 10 µM: 33.6%
HCT-116 [3]
  viability at 10 µM: 88.4%
MDA-MB-231 [4]
  viability at 10 µM: 98.6%
BT-474 [5]
  viability at 10 µM: 83%

## O=C(N/N=C/c1c[nH]c2ccccc12)C(=O)c1cn(Cc2ccc(Cl)cc2)c2ccccc12
BT-474 [9]
  IC50: 2.1 µM
MCF7 [1]
  viability at 10 µM: 15%
MDA-MB-231 [10]
  IC50: 0.5 µM
HCT-116 [11]
  Activity: 20 to 25%
Jurkat [2]
  viability at 10 µM: 20.6%
Capra hircus
  inhibition: Dose-dependent effect
MCF7 [22]
  Activity: Active
HCT-116 [3]
  viability at 10 µM: 13.3%
MDA-MB-231 [4]
  viability at 10 µM: 17.1%
HCT-116 [12]
  IC50: 0.15 µM
BT-474 [5]
  viability at 10 µM: 22.5%
MCF7 [13]
  IC50: 0.8 µM
MCF7 [14]
  Activity: 20 to 25%
[23]
  IC50: 0.6 µM
Sus scrofa [15]
  inhibition: Dose-dependent effect
Jurkat [16]
  Activity: 20 to 25%
Jurkat [17]
  IC50: 0.22 µM
Sus scrofa [24]
  inhibition: 50%
Jurkat [19]
  fold change (FC): 2 - 5
MDA-MB-231 [20]
  Activity: 20 to 25%
BT-474 [21]
  Activity: 20 to 25%

## COc1cc(/C=N/NC(=O)C(=O)c2c[nH]c3ccccc23)cc(OC)c1OC
MCF7 [1]
  viability at 10 µM: 110%
Jurkat [2]
  viability at 10 µM: 69.6%
HCT-116 [3]
  viability at 10 µM: 99.1%
MDA-MB-231 [4]
  viability at 10 µM: 103%
BT-474 [5]
  viability at 10 µM: 101%

## O=C(N/N=C/c1c[nH]c2cc(F)ccc12)C(=O)c1c[nH]c2ccccc12
MCF7 [1]
  viability at 10 µM: 40.2%
Jurkat [2]
  viability at 10 µM: 69.9%
HCT-116 [3]
  viability at 10 µM: 104%
MDA-MB-231 [4]
  viability at 10 µM: 106%
BT-474 [5]
  viability at 10 µM: 88.2%

Reference: ChEMBL document CHEMBL4138086, “Design and synthesis of bis(indolyl)ketohydrazide-hydrazones: Identification of potent and selective novel tubulin inhibitors” (Eur J Med Chem, 2017)
